Our source for the melting point values is a melting point compilation (Tetko et al.).

Where only a bound is given, the exact number is not on record here.

A word on the melting point: it is the temperature, or range, at which the solid turns liquid. With `O=C1CCc2cccc(O)c2C1`, the melting point was in the range of 156 to 157 °C.

As to `O=C(Cl)c1ccsc1Br`, the melting point was 61 to 62 °C.

For `CCCN(CCC)CCc1cccc2c1CC(=O)N2`, the melting point amounted to 246 °C.

Consider `CC(Cc1ccccc1)C(=O)O` (centres undefined), for which the melting point was in the range of 37 to 37.5 °C.

`O=C1/C(=C/c2ccccc2O)SC(=S)N1CN(CCCl)CCCl`: the melting point turned out to be 233 °C.

Turning to `CC(C)(C(=O)O)C(CC(=O)O)c1ccccc1` (centres undefined), the melting point was 171 °C.

The compound `OCc1cc(-c2ccco2)on1` showed a melting point of 90 to 91 °C.

As for `CCCC(=O)c1ccc(N)cc1`, the melting point fell in the range of 94 to 95 °C.

Compound `COc1ccc(C2(C(=O)O)CCCCC2)cc1` registered a melting point of 172 to 177 °C.

In turn, `COc1cc(/C=C/C(=O)c2ccc3ccccc3c2)cc(OC)c1OC` gave a melting point of 119 °C.

With `CCS(=O)(=O)O`, the melting point is -17 °C.

In turn, `Brc1cc(Br)c(Oc2c(Br)c(Br)c(Br)c(Br)c2Br)cc1Br` yielded a melting point of 200 °C.

Compound `O=[N+]([O-])c1ccc(NN=Cc2cccc3c(Br)ccc([N+](=O)[O-])c23)c([N+](=O)[O-])c1` yielded a melting point of 243 to 244 °C.

Compound `CC(/C=C(C)/C=C/c1ccccc1)=NNS(=O)(=O)c1ccc(C)cc1` showed a melting point of 138 to 142 °C.

In turn, `OCCCCC(O)CO` (centres undefined) gave a melting point of 25 to 32 °C.

Compound `COc1ccc(CNC(=O)c2cc([N+](=O)[O-])cc([N+](=O)[O-])c2)cc1` came in with a melting point of 151 °C.

Turning to `N#CC1(c2ccc(F)cc2)CCC(=O)CC1`, the melting point worked out at 93 °C.

The compound `COc1cc(C=CC=O)ccc1O` had a melting point of 84 °C.

With `CNCc1c(C)nc2ccccn12`, the melting point was in the range of 73 to 75 °C.

As to `CNCCCN1c2ccccc2CCc2ccccc21`, the melting point is 25 °C.

For `c1ccc2cc3cc4cc5ccccc5cc4cc3cc2c1`, the melting point is 300 °C.

In the case of `O=C(NC1(C(=O)O)Cc2ccccc2C1)OCC1c2ccccc2-c2ccccc21`, the melting point lay within 198 to 202 °C.

In the case of `Cc1nc2ccccc2c(C(=O)O)c1N`, the melting point was 204 to 205 °C.

In turn, `c1ccc(-c2cc3cc4cc(-c5ccccc5)[nH]c4cc3[nH]2)cc1` gave a melting point above 270 °C.

Take `O=S(=O)(Cl)c1ccc(N2CCOCC2)nc1`: the melting point was determined as 118 °C.

Take `Cc1nc(-c2ccccc2)c(C(=O)O)s1`: the melting point was in the range of 201 to 203 °C.

Consider `COc1cc(C(C)=O)cc(OC)c1O`, for which the melting point was in the range of 123 to 128 °C.

`CC(C)CC=O` returned a melting point of -51 °C.

Consider `CC12CC3CC(C)(C1)CC(C(=O)O)(C3)C2`, for which the melting point worked out at 101 °C.

For `O=C(O)CCCCC1CCSS1` (centres undefined), the melting point was determined as 60.5 °C.

In turn, `C#CC(=O)O` yielded a melting point of 18 °C.

Compound `C=CC(=O)N1CCOCC1` yielded a melting point of -8 °C.

Turning to `O=C1C=C(O)CC(c2ccccc2)C1` (centres undefined), the melting point was 187 °C.

`Clc1nc2ccccc2s1`: the melting point was found to be 31.5 °C.

`Cc1[nH]c2nc(C(F)(F)F)nn2c(=O)c1Cl` registered a melting point of 215 °C.

For the compound `OCC(O)CN1CCCC1` (centres undefined), the melting point was in the range of 43 to 48 °C.

`NC(=NO)c1ccc(OC(F)(F)F)cc1` registered a melting point of 113 to 115 °C.

Compound `NC(=O)/C(=N\Nc1cccnc1)c1nc2ccccc2s1` had a melting point of 238 °C.

`CN(C)C(=O)Cl` yielded a melting point of -33 °C.

`OCCNC(CO)(CO)CO` displayed a melting point of 89 °C.

Compound `O=C(O)CCC(=O)c1ccc2c(c1)OCCCO2` showed a melting point of 149 to 151 °C.

In turn, `O=C(Cl)c1ncoc1-c1ccccc1` showed a melting point of 74 to 79 °C.

Turning to `COc1ccc(-n2c(=S)[nH]c3ccccc3c2=O)cc1`, the melting point is 307 to 310 °C.

As for `O=C(O)Cc1ccc(CC(=O)O)cc1`, the melting point amounted to 254 °C.

With `CC12CCC(C(CCC3C(=O)C4(C)CCC3C4(C)C)C1=O)C2(C)C` (centres undefined), the melting point was 210 °C.

As to `N#CCc1nc(-c2ccccc2)cs1`, the melting point lay in the range of 59 to 60 °C.

The compound `COc1cc(CC(=O)O)c([N+](=O)[O-])cc1OC` had a melting point of 111 to 112 °C.

`CC[Si](Cl)(CC)CC` showed a melting point of -75 °C.

`O=C1C(C(Br)C2(Br)C(=O)N(c3ccccc3)N=C2c2ccc([N+](=O)[O-])cc2)C(c2ccc([N+](=O)[O-])cc2)=NN1c1ccccc1` (centres undefined) came in with a melting point of 308 to 310 °C.

Compound `O=Cc1ccc(F)c(C(=O)O)c1` returned a melting point of 175 to 178 °C.

`COCN1CCOCCOCCN(COC)CCOCCOCC1`: the melting point lay within 33 to 38 °C.

`Nc1ccc2c(c1)C(=O)c1ccccc1-2` yielded a melting point of 152 to 157 °C.

`CN1CCCN=C1C=Cc1cccs1` showed a melting point of 178 °C.

Regarding `O=C1C(c2ccc(C3=[N+]([O-])c4cc([N+](=O)[O-])ccc4C3=O)cc2)=[N+]([O-])c2cc([N+](=O)[O-])ccc21`, the melting point came out at 294 °C.

For `Nc1ncnc2c1ncn2C1OC(COP(=O)(O)O)C(O)C1O` (centres undefined), the melting point was 213 °C.

Turning to `O=C1N[C@H]2CC[C@@H]1C2`, the melting point is 76.2 °C.

`Cn1cc(Br)c(-c2cccc(N)c2)n1` gave a melting point of 95 to 97 °C.

In turn, `CC(=O)Oc1cc(C)ccc1C1(C)CC(C)(C)c2ccc(C)cc2O1` (centres undefined) returned a melting point of 102 °C.

Compound `Nc1ncccc1Br` displayed a melting point of 66 °C.

The compound `O=[N+]([O-])c1ccccc1C(O)C(O)c1ccccc1` (centres undefined) gave a melting point of 100 °C.

`NNC(=O)c1ccccc1`: the melting point worked out at 115 °C.

The compound `CCCCCCCCCCCCCCCCCC(=O)OCCOC(=O)CCCCCCCCCCCCCCCCC` showed a melting point of 79 °C.

The compound `CC12CCC(O)CC1=CCC1C2CCC2(C)C1CCC2(O)C#Cc1ccccc1` (centres undefined) returned a melting point of 162 to 165 °C.

Consider `O=C(CC(=O)C(F)(F)F)c1ccc2c(c1)OCO2`, for which the melting point was in the range of 108 to 109 °C.

Take `O=C(O)c1cnn(-c2ccc(Cl)cc2)c1C(F)(F)F`: the melting point was in the range of 137 to 138 °C.

`OC(c1ccc(Cl)cc1)c1ccc(Cl)cc1`: the melting point is 92 °C.

`COc1ccc(NC(=S)NNC(=O)c2nn(-c3ccccc3)nc2C)cc1`: the melting point is 206 to 207 °C.

For the compound `Nc1nc(N)c2nc(-c3ccccc3)c(N)nc2n1`, the melting point amounted to 316 °C.

In the case of `Cc1cc(C)cc(O[Si]23OCCN(CCO2)CCO3)c1`, the melting point was determined as 220 °C.

With `c1ccc(Cn2cccc2)cc1`, the melting point came out at 15 °C.

Regarding `NC(=S)Nc1ccc2c(c1)OCO2`, the melting point was in the range of 198 to 200 °C.

The compound `O=C1CCC/C1=C1\C(=O)Nc2ccccc21` registered a melting point of 267 °C.

With `O=[N+]([O-])c1cc([N+](=O)[O-])c(/C=C/c2cccc3c2OCO3)cc1/C=C/c1cccc2c1OCO2`, the melting point came to 215 °C.

`CCCCCCCCCCCCCCC(=O)OC` displayed a melting point of 18.5 °C.

Regarding `NNC(=S)NN`, the melting point was in the range of 168 to 172 °C.

`Clc1ccc(Oc2ccccc2)cc1`: the melting point is -8 °C.

On to `CCCCCCCCCCCCCCCCCCCCCC1CCCC1`, for which the melting point was 42 °C.

In turn, `O=C1C(=O)c2ccccc2CCc2ccccc21` gave a melting point of 132 °C.

Take `c1c2c(cc3c1CCCN3)NCCC2`: the melting point was determined as 113 °C.
